# Results published in patent US20240124520A1, “N-ACYLATED HISTIDINE DIPEPTIDES AS ANTICANCER AGENTS” (THE BOARD OF TRUSTEES OF THE LELAND STANFORD JUNIOR …, priority 2019, published 2024).
# Non-standard residues stand in square brackets, D forms with d. Residues, ends and D or L forms follow the SMILES beside them. *: point of attachment. Palmitoyl = CCCCCCCCCCCCCCCC(=O)*
# Tested on: MDA-MB-231 triple-negative human breast cancer cells
# Assay: Cell Titer Blue in vitro cell viability assay, MDA-MB-231
# Type: cell-based
# Conditions: MDA-MB-231 (DMEM); for IC50: MDA-MB-231, 72 h, 3 days at 37° C.
# Method: FIG. 1: Dose Response curve for MBC017 with MDA-MB-231 cells. Compound MBC017 was incubated with MDA-MB-231 triple-negative human breast cancer cells at the indicated concentrations for 3 days at 37° C. prior to Cell Titer Blue fluorescence-based cell viability assay. Normalized cell viability data, expressed as a percentage, are averaged from three biological replicates and standard error represented by error bars for each averaged data point (empty squares). The compound concentrations are represented on log scale on the x-axis in μM units. Data were analyzed using free software called DrFit, as described in Nature Scientific Reports, Article number: 14701, (2015). […] The data were not sufficient to calculate an accurate IC50 value.
# A commercially available in vitro cell viability reagent (Cell Titer Blue) was employed to determine the anti-cancer effectiveness of several compounds (1-5) against multiple cancer and healthy tissue-derived cell lines. Cell lines are summarized in Table 2, as follows: All cell lines and information on each cell lines origins and characteristics were procured from ATCC (www.atcc.org). Common names and ATCC product IDs are shown in the first (leftmost) column. From the left, the second and third columns describe the organism and tissue from which each cell line was isolated. The fourth and fifth columns indicate the cell type and disease status (e.g. normal versus carcinoma) of each cell line. The sixth column provides a summary of what compounds were tested against each cell line using an in vitro cell viability assay. Peptide name IDs are shown in parenthesis for each compound, numbered 1 through 5.
# The Cell Titer Blue reagent (available from Promega, Inc.) is a buffered solution containing resazurin, a compound that is converted to resorufin, a detectable fluorescent product, by metabolically active cells. The fluorescence intensity of resorufin product therefore serves as a proportional measure of the number of viable cells, permitting changes in cell viability within cancer or other cell lines to be monitored in response to the addition of cytotoxic or cytostatic agents. Various human breast tissue-derived cell lines are widely employed to study the effects of potential therapeutics against breast cancer in vitro. Human breast cancer cell lines may be subdivided into groups based upon hormone receptor status, i.e. estrogen, progesterone and human epidermal growth factor positive or negative. A healthy human breast tissue-derived cell line, hTERT-HME1 may be used to determine the effect of therapeutic agents on healthy human breast tissue in vitro. Additionally, a highly metastatic and aggressive murine (mouse) breast cancer cell line, 4T1, has been extensively used to monitor breast cancer metastasis from the mammary fat pads of mice to the lungs in order to systematically survey the anti-metastatic effectiveness of anti-cancer therapeutics in an in vivo animal model. Metastases to the lungs may be conveniently quantified by a well-established clonogenic assay. Other human tissue-derived model cell lines, representative of various cancers, other than breast cancer, may be utilized to assess the potential of anti-cancer compounds in vitro. These include, K-562 (chronic myelogenous leukemia), HEPG2 (hepatocellular carcinoma), OVCAR-3 (ovarian adenocarcinoma), SK—N—SH (neuroblastoma) and A549 (lung carcinoma). Several compounds were assayed in vitro using the Cell Titer Blue viability assay against an array of cancer cell lines of both human and murine origin plus one healthy human breast cell line (Table 1, FIGS. 1-16). A mouse 4T1 metastasis study was performed to determine the anti-metastatic potential of one compound, MBC0179 (FIG. 17).
# Dimethyl sulfoxide (DMSO), Cremophor EL, methylene blue, 100× antibiotic/antimycotic solution, collagenase (Type IV), DNAse I and 6-thioguanine were available from Millipore-Sigma. […]
IC50 [µM],Structure (SMILES),"cytotoxicity at 125 µM (72 h, 125 μM, relative to vehicle, 3 days of incubation, read-out: reduction in viability) [%]"
,"CCCCCCCCCCCCCCCC(=O)N[C@@H](Cc1c[nH]cn1)C(=O)N[C@H](C(=O)O)C(C)C [Compound 1, N-[N-(1-oxohexadecyl)-L-histidyl]-L-valine] (Palmitoyl-His-Val-OH)",~40
6730,"CCCCCCCCCCCCCCCC(=O)N[C@@H](Cc1c[nH]cn1)C(=O)N[C@H](C(=O)O)[C@@H](C)CC [Compound 2, N-[N-(1-oxohexadecyl)-L-histidyl]-L-isoleucine] (Palmitoyl-His-Ile-OH)",
13.1,"CCCCCCCCCCCCCCCC(=O)N[C@@H](Cc1c[nH]cn1)C(=O)N[C@H](C(=O)OCC)C(C)C [Compound 3, N-[N-(1-oxohexadecyl)-L-histidyl]-L-valine ethyl ester] (Palmitoyl-His-Val-OEt)",
62.1,"CCCCCCCCCCCCCCCC(=O)N[C@H](Cc1c[nH]cn1)C(=O)N[C@@H](C(=O)O)C(C)C [Compound 4, N-[N-(1-oxohexadecyl)-D-histidyl]-D-valine] (Palmitoyl-[dH]-[dV]-OH)",
